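Cultured in 96-well plates, cells were exposed to test compound for 48 hours across five concentrations. GI50 is the concentration that inhibits growth by half.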 Active and inactive are the calls of the source. No stated cut-off is given here; in the data, active = GI50 up to about 1.1 µM and inactive = higher.
What was measured:
Assay in all cases: NCI tumour cell line growth inhibition, 48 h
786-0 = tested on: 786-0
A498 = tested on: A498
BT-549 = tested on: BT-549
COLO 205 = tested on: COLO 205
DMS-273 = tested on: DMS-273
DU-145 = tested on: DU-145
HCT-15 = tested on: HCT-15
HOP-18 = tested on: HOP-18
HOP-62 = tested on: HOP-62
HOP-92 = tested on: HOP-92
HT-29 = tested on: HT-29
Hs-578T = tested on: Hs-578T
KM-20L2 = tested on: KM-20L2
LOX IMVI = tested on: LOX IMVI
MCF7 = tested on: MCF7
MDA-MB-435 = tested on: MDA-MB-435
MDA-N = tested on: MDA-N
MOLT-4 = tested on: MOLT-4
Malme-3M = tested on: Malme-3M
NCI-H23 = tested on: NCI-H23
NCI-H460 = tested on: NCI-H460
NCI-H522 = tested on: NCI-H522
NCI/ADR-RES = tested on: NCI/ADR-RES
OVCAR-3 = tested on: OVCAR-3
OVCAR-4 = tested on: OVCAR-4
OVCAR-8 = tested on: OVCAR-8
PC-3 = tested on: PC-3
RXF 631 = tested on: RXF 631
SF-268 = tested on: SF-268
SF-295 = tested on: SF-295
SF-539 = tested on: SF-539
SK-OV-3 = tested on: SK-OV-3
SN12C = tested on: SN12C
SNB-19 = tested on: SNB-19
T47D = tested on: T47D
U-251 = tested on: U-251
UACC-62 = tested on: UACC-62
A549 = tested on: A549
ACHN = tested on: ACHN
CAKI-1 = tested on: CAKI-1
CCRF-CEM = tested on: CCRF-CEM
DLD-1 = tested on: DLD-1
DMS-114 = tested on: DMS-114
EKVX = tested on: EKVX
HCC 2998 = tested on: HCC 2998
HL-60 = tested on: HL-60
IGROV-1 = tested on: IGROV-1
K562 = tested on: K562
KM12 = tested on: KM12
LXFL 529 = tested on: LXFL 529
M14 = tested on: M14
M19-MEL = tested on: M19-MEL
NCI-H226 = tested on: NCI-H226
OVCAR-5 = tested on: OVCAR-5
RPMI-8226 = tested on: RPMI-8226
RXF 393 = tested on: RXF 393
SK-MEL-28 = tested on: SK-MEL-28
SK-MEL-2 = tested on: SK-MEL-2
SK-MEL-5 = tested on: SK-MEL-5
SNB-75 = tested on: SNB-75
SNB-78 = tested on: SNB-78
SW-620 = tested on: SW-620
TK-10 = tested on: TK-10
UACC-257 = tested on: UACC-257
UO-31 = tested on: UO-31
HCT-116 = tested on: HCT-116
SR = tested on: SR

CC(=O)OCC1OC(n2c(=S)n(-c3ccc([N+](=O)[O-])cc3)c(=O)c3ccccc32)C(OC(C)=O)C(OC(C)=O)C1OC(C)=O (stereo not drawn)
GI50 (786-0): 15.3 µM (inactive)
GI50 (A498): 25.5 µM (inactive)
GI50 (BT-549): 2.69 µM (inactive)
GI50 (COLO 205): 27.5 µM (inactive)
GI50 (DMS-273): 21.9 µM (inactive)
GI50 (DU-145): 24.9 µM (inactive)
GI50 (HCT-15): 29.3 µM
GI50 (HOP-18): 13.4 µM (inactive)
GI50 (HOP-62): 21.6 µM (inactive)
GI50 (HOP-92): 25.5 µM (inactive)
GI50 (HT-29): 21 µM (inactive)
GI50 (Hs-578T): 4.46 µM (inactive)
GI50 (KM-20L2): 28.3 µM (inactive)
GI50 (LOX IMVI): 13.2 µM (inactive)
GI50 (MCF7): 16.7 µM (inactive)
GI50 (MDA-MB-435): 27 µM (inactive)
GI50 (MDA-N): 27.7 µM (inactive)
GI50 (MOLT-4): 8.22 µM (inactive)
GI50 (Malme-3M): 15.2 µM (inactive)
GI50 (NCI-H23): 21.3 µM (inactive)
GI50 (NCI-H460): 21.7 µM (inactive)
GI50 (NCI-H522): 15.4 µM (inactive)
GI50 (NCI/ADR-RES): 30.7 µM (inactive)
GI50 (OVCAR-3): 17.1 µM (inactive)
GI50 (OVCAR-4): 20.8 µM (inactive)
GI50 (OVCAR-8): 20.1 µM (inactive)
GI50 (PC-3): 15.8 µM (inactive)
GI50 (RXF 631): 19.2 µM (inactive)
GI50 (SF-268): 18.5 µM (inactive)
GI50 (SF-295): 23.3 µM (inactive)
GI50 (SF-539): 14.3 µM (inactive)
GI50 (SK-OV-3): 23.3 µM (inactive)
GI50 (SN12C): 19.1 µM (inactive)
GI50 (SNB-19): 19.9 µM (inactive)
GI50 (T47D): 17.3 µM (inactive)
GI50 (U-251): 18.4 µM (inactive)
GI50 (UACC-62): 15.7 µM (inactive)

O=C1[C@@H]2C(c3ccncc3)=NO[C@@H]2C(=O)N1c1ccc(Cc2ccc(N3C(=O)[C@H]4C(c5ccncc5)=NO[C@H]4C3=O)cc2)cc1
GI50 (786-0): > 100 µM (inactive)
GI50 (A498): > 100 µM (inactive)
GI50 (A549): > 100 µM (inactive)
GI50 (ACHN): > 100 µM (inactive)
GI50 (CAKI-1): > 100 µM (inactive)
GI50 (CCRF-CEM): > 100 µM (inactive)
GI50 (COLO 205): > 100 µM (inactive)
GI50 (DLD-1): > 100 µM (inactive)
GI50 (DMS-114): > 100 µM (inactive)
GI50 (DMS-273): > 100 µM (inactive)
GI50 (EKVX): > 100 µM (inactive)
GI50 (HCC 2998): > 100 µM (inactive)
GI50 (HCT-15): > 100 µM
GI50 (HL-60): > 100 µM (inactive)
GI50 (HOP-18): > 100 µM (inactive)
GI50 (HOP-62): > 100 µM (inactive)
GI50 (HOP-92): > 100 µM (inactive)
GI50 (HT-29): > 100 µM (inactive)
GI50 (IGROV-1): > 100 µM (inactive)
GI50 (K562): > 100 µM (inactive)
GI50 (KM-20L2): > 100 µM (inactive)
GI50 (KM12): > 100 µM (inactive)
GI50 (LOX IMVI): > 100 µM (inactive)
GI50 (LXFL 529): 29.3 µM (inactive)
GI50 (M14): > 100 µM (inactive)
GI50 (M19-MEL): > 100 µM (inactive)
GI50 (MOLT-4): > 100 µM (inactive)
GI50 (Malme-3M): 99.1 µM (inactive)
GI50 (NCI-H226): 73.8 µM (inactive)
GI50 (NCI-H23): > 100 µM (inactive)
GI50 (NCI-H460): > 100 µM (inactive)
GI50 (OVCAR-3): > 100 µM (inactive)
GI50 (OVCAR-4): > 100 µM (inactive)
GI50 (OVCAR-5): > 100 µM (inactive)
GI50 (OVCAR-8): > 100 µM (inactive)
GI50 (RPMI-8226): > 100 µM (inactive)
GI50 (RXF 393): > 100 µM (inactive)
GI50 (RXF 631): > 100 µM (inactive)
GI50 (SF-268): > 100 µM (inactive)
GI50 (SF-295): > 100 µM (inactive)
GI50 (SF-539): > 100 µM (inactive)
GI50 (SK-MEL-28): > 100 µM (inactive)
GI50 (SK-MEL-2): > 100 µM (inactive)
GI50 (SK-MEL-5): > 100 µM (inactive)
GI50 (SK-OV-3): > 100 µM (inactive)
GI50 (SN12C): > 100 µM (inactive)
GI50 (SNB-75): > 100 µM (inactive)
GI50 (SNB-78): > 100 µM (inactive)
GI50 (SW-620): > 100 µM (inactive)
GI50 (TK-10): > 100 µM (inactive)
GI50 (U-251): > 100 µM (inactive)
GI50 (UACC-257): > 100 µM (inactive)
GI50 (UACC-62): > 100 µM (inactive)
GI50 (UO-31): > 100 µM (inactive)

C1=Cc2nc1c(-c1ccccc1)c1nc(c(-c3ccccc3)c3ccc([nH]3)c(-c3ccccc3)c3ccc([nH]3)c2-c2ccccc2)C=C1 [TETRAPHENYLPORPHYRIN]
GI50 (786-0): > 100 µM (inactive)
GI50 (A498): > 100 µM (inactive)
GI50 (A549): > 100 µM (inactive)
GI50 (ACHN): > 100 µM (inactive)
GI50 (CAKI-1): > 100 µM (inactive)
GI50 (CCRF-CEM): > 100 µM (inactive)
GI50 (COLO 205): > 100 µM (inactive)
GI50 (DLD-1): > 100 µM (inactive)
GI50 (DMS-114): > 100 µM (inactive)
GI50 (DMS-273): > 100 µM (inactive)
GI50 (EKVX): > 100 µM (inactive)
GI50 (HCC 2998): > 100 µM (inactive)
GI50 (HCT-116): > 100 µM (inactive)
GI50 (HCT-15): > 100 µM
GI50 (HL-60): > 100 µM (inactive)
GI50 (HOP-18): > 100 µM (inactive)
GI50 (HOP-62): > 100 µM (inactive)
GI50 (HOP-92): > 100 µM (inactive)
GI50 (HT-29): > 100 µM (inactive)
GI50 (IGROV-1): > 100 µM (inactive)
GI50 (K562): > 100 µM (inactive)
GI50 (KM-20L2): > 100 µM (inactive)
GI50 (KM12): > 100 µM (inactive)
GI50 (LOX IMVI): > 100 µM (inactive)
GI50 (LXFL 529): > 100 µM (inactive)
GI50 (M14): > 100 µM (inactive)
GI50 (M19-MEL): > 100 µM (inactive)
GI50 (MOLT-4): > 100 µM (inactive)
GI50 (Malme-3M): > 100 µM (inactive)
GI50 (NCI-H226): > 100 µM (inactive)
GI50 (NCI-H23): > 100 µM (inactive)
GI50 (NCI-H460): > 100 µM (inactive)
GI50 (NCI-H522): > 100 µM (inactive)
GI50 (OVCAR-3): > 100 µM (inactive)
GI50 (OVCAR-4): > 100 µM (inactive)
GI50 (OVCAR-5): > 100 µM (inactive)
GI50 (OVCAR-8): > 100 µM (inactive)
GI50 (RPMI-8226): > 100 µM (inactive)
GI50 (RXF 631): > 100 µM (inactive)
GI50 (SF-268): > 100 µM (inactive)
GI50 (SF-295): > 100 µM (inactive)
GI50 (SF-539): > 100 µM (inactive)
GI50 (SK-MEL-28): > 100 µM (inactive)
GI50 (SK-MEL-2): > 100 µM (inactive)
GI50 (SK-MEL-5): > 100 µM (inactive)
GI50 (SK-OV-3): > 100 µM (inactive)
GI50 (SN12C): > 100 µM (inactive)
GI50 (SNB-19): > 100 µM (inactive)
GI50 (SNB-75): > 100 µM (inactive)
GI50 (SNB-78): > 100 µM (inactive)
GI50 (SR): > 100 µM (inactive)
GI50 (SW-620): > 100 µM (inactive)
GI50 (TK-10): > 100 µM (inactive)
GI50 (U-251): > 100 µM (inactive)
GI50 (UACC-257): > 100 µM (inactive)
GI50 (UACC-62): > 100 µM (inactive)
GI50 (UO-31): > 100 µM (inactive)

From ChEMBL document CHEMBL1201862, “PubChem BioAssay data set” (2004)
